Laboratory results as given in patent US9732063B2, “Kinase inhibitors” (RESPIVERT LIMITED, priority 2012, dated 2017).
Where two headings read alike, the source gives them in different places.

Experiments:
PBMCs [1] = assay: LPS-induced TNFα/IL-8 release in PBMC cells; format: cell-based; details: Homo sapiens, read-out: IC50 Values for Inhibition of Cytokine Release PBMCs IL-8
Method in brief: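 Healthy-donor PBMCs, isolated by density gradient, were pretreated with compound for 2 h and then stimulated with 1 ng/mL E. coli O111:B4 LPS for 24 h at 37 °C, 5% CO2. Supernatant IL-8 and TNFα were quantified by sandwich ELISA.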

HT29 cells = assay: IL-1β-induced IL-8 release in HT29 cells; format: cell-based; details: Homo sapiens, HT-29, read-out: IC50 Values for Inhibition of Cytokine Release HT29 cells IL-8
Description: HT29 cells, a human colon adenocarcinoma cell line, are plated in a 96 well plate (24 hrs) and pre-treated with compounds at the desired concentration for 2 hours before addition of 5 ng/mL of IL-1β (Abcam) for 24 hours. Supernatants are harvested for IL-8 quantification by Sandwich ELISA (Duo-set, R&D System). The IC50 is determined from the dose response curve.

PBMCs [2] = assay: IL-2 and IFN gamma release in CD3/CD28 stimulated PBMC cells; format: cell-based; details: Homo sapiens
Method in brief: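 They were cultured with compound for 3 days. IL-2 and IFN-γ in supernatants were quantified by sandwich ELISA, and IC50 was derived from the dose-response curve.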

p38 MAPKα = p38 MAPKα (Homo sapiens (Human), UniProt Q16539); assay: p38 MAPKα enzyme inhibition (Z-LYTE FRET, Method 2); format: biochemical
Description: (§1) The enzyme inhibitory activities of compounds disclosed herein are determined by FRET using synthetic peptides labelled with both donor and acceptor fluorophores (Z-LYTE, Invitrogen Ltd., Paisley, UK).
The inhibitory activities of test compounds against the p38 MAPKα isoform (MAPK14: Invitrogen), are evaluated indirectly by determining the level of activation/phosphorylation of the down-stream molecule, MAPKAP-K2. The p38 MAPKα protein (80 ng/mL, 2.5 μL) is mixed with the test compound (2.5 μL of either 4 μg/mL, 0.4 μg/mL, 0.04 μg/mL or 0.004 μg/mL) for 2 hr at RT. […] The mixture is incubated for 1 hr at RT. Development reagent (protease, 5 μL) is added for 1 hr prior to detection in a fluorescence microplate reader (Varioskan® Flash, ThermoFisher Scientific).
(§2) In all cases, the site-specific protease cleaves non-phosphorylated peptide only and eliminates the FRET signal. Phosphorylation levels of each reaction are calculated using the ratio of coumarin emission (donor) over fluorescein emission (acceptor), for which high ratios indicate high phosphorylation and low ratios indicate low phosphorylation levels.

d-U937 cells = assay: LPS-induced TNFα/IL-8 release in d-U937 cells; format: cell-based; details: Homo sapiens
Description: Cells are pre-incubated with final concentrations of test compound for 2 hr and are then stimulated with 0.1 μg/mL of LPS (from E. coli: O111:B4, Sigma) for 4 hr. The supernatant is collected for determination of TNFα and IL-8 concentrations by sandwich ELISA (Duo-set, R&D systems). […] The relative 50% effective concentration (REC50) is determined from the resultant concentration-response curve. The inhibition of IL-8 production is calculated at each concentration of test compound by comparison with vehicle control.

Syk = Syk (Homo sapiens (Human), UniProt P43405); assay: Syk enzyme inhibition (Z-LYTE FRET); format: biochemical
Description: as §1
(§3) The relevant enzyme (3000 ng/mL or 2000 ng/mL respectively, 2.5 μL) is incubated with the test compound (either 4 μg/mL, 0.4 μg/mL, 0.04 μg/mL, or 0.004 μg/mL, 2.5 μL each) for 2 hr at RT. The FRET peptides (8 μM, 2.5 μL), and appropriate ATP solutions (2.5 μL, 800 μM for c-Src, and 60 μM ATP for Syk) are then added to the enzymes/compound mixtures and incubated for 1 hr. Development reagent (protease, 5 μL) is added for 1 hr prior to detection in a fluorescence microplate reader (Varioskan® Flash, ThermoFisher Scientific).
as §2

c-Src = c-Src (Homo sapiens (Human), UniProt P12931); assay: c-Src enzyme inhibition (Z-LYTE FRET); format: biochemical
Description: as §1, §3, §2

GSK3α = GSK3α (Homo sapiens (Human), UniProt P49840); assay: GSK 3α enzyme inhibition (Z-LYTE FRET, Method 2); format: biochemical
Method in brief: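 Z-LYTE FRET: GSK3α preincubated with compound 2 h at RT, then FRET peptide and ATP added (stocks 8 μM and 40 μM) for 1 h, followed by 1 h protease development. Compound stocks 4–0.004 μg/mL; phosphorylation from coumarin/fluorescein emission ratio.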

[3] = read-out: IC50 Values for Inhibition of Cytokine Release PBMCs IL-2
[4] = dU937, read-out: IC50 Values for Inhibition of Cytokine Release dU937 cells TNFα
[5] = read-out: IC50 Values for Inhibition of Cytokine Release PBMCs IFNγ
[6] = dU937, read-out: IC50 Values for Inhibition of Cytokine Release dU937 cells IL-8

p38 MAPKα, sequence (Q16539 whole entry): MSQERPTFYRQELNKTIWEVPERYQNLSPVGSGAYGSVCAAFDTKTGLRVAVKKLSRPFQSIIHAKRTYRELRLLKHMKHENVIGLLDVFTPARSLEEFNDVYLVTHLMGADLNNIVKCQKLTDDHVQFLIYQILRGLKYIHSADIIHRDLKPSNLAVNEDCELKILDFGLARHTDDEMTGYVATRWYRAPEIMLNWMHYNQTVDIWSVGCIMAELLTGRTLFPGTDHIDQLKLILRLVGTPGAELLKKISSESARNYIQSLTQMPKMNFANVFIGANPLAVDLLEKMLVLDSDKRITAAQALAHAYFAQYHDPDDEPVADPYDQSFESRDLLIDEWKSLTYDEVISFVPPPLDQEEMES
c-Src, sequence (P12931 whole entry, looked up): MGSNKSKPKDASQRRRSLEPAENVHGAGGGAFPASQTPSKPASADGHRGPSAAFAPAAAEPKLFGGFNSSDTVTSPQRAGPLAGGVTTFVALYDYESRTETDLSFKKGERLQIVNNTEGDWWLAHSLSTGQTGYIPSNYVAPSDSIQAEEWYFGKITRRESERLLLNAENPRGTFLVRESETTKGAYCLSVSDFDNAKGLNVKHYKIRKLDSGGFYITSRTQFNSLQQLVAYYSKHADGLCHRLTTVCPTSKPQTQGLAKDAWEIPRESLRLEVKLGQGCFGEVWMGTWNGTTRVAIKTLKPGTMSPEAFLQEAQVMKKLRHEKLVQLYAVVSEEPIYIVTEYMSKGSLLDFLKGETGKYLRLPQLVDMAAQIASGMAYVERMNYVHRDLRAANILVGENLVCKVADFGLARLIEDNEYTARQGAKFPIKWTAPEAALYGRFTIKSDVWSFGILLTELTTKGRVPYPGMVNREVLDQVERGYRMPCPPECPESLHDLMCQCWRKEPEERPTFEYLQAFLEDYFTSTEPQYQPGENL
GSK3α, sequence (P49840 whole entry): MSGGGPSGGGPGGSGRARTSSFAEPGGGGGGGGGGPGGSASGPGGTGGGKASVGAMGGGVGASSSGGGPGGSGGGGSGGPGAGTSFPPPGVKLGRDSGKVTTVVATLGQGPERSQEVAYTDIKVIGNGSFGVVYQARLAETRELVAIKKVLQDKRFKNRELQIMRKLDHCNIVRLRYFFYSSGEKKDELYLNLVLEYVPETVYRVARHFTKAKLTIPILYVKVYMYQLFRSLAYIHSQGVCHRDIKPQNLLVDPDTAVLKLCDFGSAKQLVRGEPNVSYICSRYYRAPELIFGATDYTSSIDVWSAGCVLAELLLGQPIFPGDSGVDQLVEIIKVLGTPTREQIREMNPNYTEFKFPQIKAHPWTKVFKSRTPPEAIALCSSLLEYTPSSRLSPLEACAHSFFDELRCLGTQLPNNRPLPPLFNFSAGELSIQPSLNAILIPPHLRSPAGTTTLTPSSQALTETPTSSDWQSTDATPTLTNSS

Row | Structure (SMILES) | IC50 (PBMCs [1]) [nM] | IC50 (HT29 cells) [nM] | IC50 (PBMCs [2]; [3]) [nM] | IC50 (p38 MAPKα) [nM] | IC50 (d-U937 cells; [4]) [nM] | IC50 (Syk) [nM] | IC50 (c-Src) [nM] | IC50 (PBMCs [2]; [5]) [nM] | IC50 (d-U937 cells; [6]) [nM] | IC50 (GSK3α) [nM]
1 | Cc1ccc(-n2nc(C(C)C)cc2NC(=O)Nc2ccc(Oc3ccnc(Nc4cccc(N=S(C)(C)=O)c4)n3)c3ccccc23)cc1 [Example 14] | 2.4 | 7.9 |  |  |  |  |  |  |  | 
2 | COc1cc(Nc2nccc(Oc3ccc(NC(=O)Nc4cc(C(C)C)nn4-c4ccc(C)cc4)c4ccccc34)n2)cc(OCCOCCOCCO)c1 [Example 20, 1-(4-((2-((3-(2-(2-(2-Hydroxyethoxy)ethoxy)ethoxy)-5-methoxyphenyl)amino)pyrimidin-4-yl)oxy)naphthalen-1-yl)-3-(3-isopropyl-1-(P-tolyl)-1H-pyrazol-5-yl)urea] | 1.5 |  | 80.8 | 26 | 1.6 | 8 | 8 |  |  | 
3 | COc1cc(Nc2nccc(Oc3ccc(NC(=O)Nc4cc(C(C)C)nn4-c4ccc(C)cc4)c(Cl)c3Cl)n2)cc(OCCN2CCOCC2)c1 [Example 21, 1-(2,3-Dichloro-4-((2-((3-methoxy-5-(2-morpholinoethoxyl)phenyl)amino)pyrimidin-4-yl)-oxy)phenyl)-3-(3-isopropyl-1-(p-tolyl)-1H-pyrazol-5-yl)urea] | 1.6 |  | 10.7 | 342 | 1.1 | 72 | 61 | 1.9 | 1.6 | 
4 | COCCOCCOCCOCCOCCOc1cc(Nc2nccc(Oc3ccc(NC(=O)Nc4cc(C(C)C)nn4-c4ccc(C)cc4)c4ccccc34)n2)cc(OC)c1 [Example 30, 1-(4-((2-((3-(2,5,8,11,14-Pentaoxahexadecan-16-yloxy)-5-methoxyphenyl)amino)-pyrimidin-4-yl)oxy)naphthalen-1-yl)-3-(3-isopropyl-1-(p-tolyl)-1H-pyrazol-5-yl)urea] | 2.1 |  | 27.3 | 32 |  | 12 | 4 | 15.2 |  | 7230
5 | COc1cc(Nc2nccc(Oc3ccc(NC(=O)Nc4cc(C(C)(C)C)nn4-c4ccc(C)cc4)c4ccccc34)n2)cc(SCCCN2CCOCC2)c1 [Example 42, 1-(3-(tert-Butyl)-1-(p-tolyl)-1H-pyrazol-5-yl)-3-(4-((2-((3-methoxy-5-((3-morpholinopropyl)-thio)phenyl)amino)pyrimidin-4-yl)oxy)naphthalen-1-yl)urea] | 3.6 |  | 58.5 | 291 |  | 51 | 28 | 1 |  | 1930
6 | COc1cc(Nc2nccc(Oc3ccc(NC(=O)Nc4cc(C(C)(C)C)nn4-c4ccc(C)cc4)c4ccccc34)n2)cc(OCCN2CCOCC2)c1 [Example 45, 1-(3-(tert-Butyl)-1-(P-tolyl)-1H-pyrazol-5-yl)-3-(4-((2-((3-methoxy-5-(2-morpholinoethoxy)-phenyl)amino)pyrimidin-4-yl)oxy)naphthalen-1-yl)urea] | 3.2 |  | 73.8 | 144 |  | 15 | 12 | 2.2 |  | 1490
7 | COc1cc(Nc2nccc(Oc3ccc(NC(=O)Nc4cc(C(C)(C)C)nn4-c4ccc(C)cc4)c4ccccc34)n2)cc(OCCCN2CCOCC2)c1 [Example 49, 1-(3-(tert-Butyl)-1-(p-tolyl)-1H-pyrazol-5-yl)-3-(4-((2-((3-methoxy-5-(3-morpholino-propoxy)phenyl)amino)pyrimidin-4-yl)oxy)naphthalen-1-yl)urea] | 1.9 | 2.3 | 54.7 | 175 |  | 20 | 23 | 1.2 |  | 7260
8 | COCCOCCOCCOc1cc(Nc2nccc(Oc3ccc(NC(=O)Nc4cc(C(C)(C)C)nn4-c4ccc(C)cc4)c(Cl)c3Cl)n2)cc(OC)c1 [Example 53, 1-(3-(tert-Butyl)-1-(p-tolyl)-1H-pyrazol-5-yl)-3-(2,3-dichloro-4-((2-((3-methoxy-5-(2-(2-(2-methoxyethoxyl)ethoxy)ethoxy)phenyl)amino)pyrimidin-4-yl)oxy)phenyl)urea] | 3.8 | 2.4 | 133 | 816 |  | 56 | 23 | 2.1 |  | > 10000
9 | COc1cc(Nc2nccc(Oc3ccc(NC(=O)Nc4cc(C(C)(C)C)nn4-c4ccc(C)cc4)c4ccccc34)n2)cc(SCCO)c1 [Example 55, 1-(3-(tert-Butyl)-1-(p-tolyl)-1H-pyrazol-5-yl)-3-(4-((2-((3-((2-hydroxyethyl)thio)-5-methoxyphenyl)amino)pyrimidin-4-yl)oxy)naphthalen-1-yl)urea] | 2 | 2.4 | 36.8 | 200 |  | 42 |  | 2 |  | 1230
10 | COc1cc(Nc2nccc(Oc3ccc(NC(=O)Nc4cc(C(C)(C)C)nn4-c4ccc(OC)nc4)c4ccccc34)n2)cc(S(=O)(=O)C2CC2)c1 [Example 61, 1-(3-(tert-Butyl)-1-(6-methoxypyridin-3-yl)-1H-pyrazol-5-yl)-3-(4-((2-((3-(cyclopropylsulfonyl)-5-methoxyphenyl)amino)pyrimidin-4-yl)oxy)naphthalen-1-yl)urea] | 2 | 4.8 | 42.4 | 301 |  |  | 73 | 1.9 |  | 3800
11 | COc1cc(Nc2nccc(Oc3ccc(NC(=O)Nc4cc(C(C)(C)C)nn4-c4ccc(C)cc4)c4ccccc34)n2)cc(OCCOCCOCCO)c1 [Example 62, 1-(3-(tert-Butyl)-1-(P-tolyl)-1H-pyrazol-5-yl)-3-(4-((2-((3-(2-(2-(2-hydroxyethoxy)ethoxy)ethoxy)-5-methoxyphenyl)amino)pyrimidin-4-yl)oxy)naphthalen-1-yl)urea] | 1.5 | 2.5 | 52.9 | 95 |  | 6 | 4 | 2.1 |  | 
12 | COc1ccc(-n2nc(C(C)(C)C)cc2NC(=O)Nc2ccc(Oc3ccnc(Nc4cc(OC)cc(S(=O)(=O)C5CC5)c4)n3)c3ccccc23)cc1 [Example 70, 1-(3-(tert-Butyl)-1-(4-methoxyphenyl)-1H-pyrazol-5-yl)-3-(4-((2-((3-(cyclopropylsulfonyl)-5-methoxyphenyl)amino)pyrimidin-4-yl)oxy)naphthalen-1-yl)urea] | 0.9 |  | 73.5 | 300 | 1.1 | 62 |  | 1.4 | 1.9 | 3350
13 | COc1cc(Nc2nccc(Oc3ccc(NC(=O)Nc4cc(C(C)(C)C)nn4-c4ccc(C)cc4)c(Cl)c3Cl)n2)cc(OCCOCCOCCO)c1 [Example 71, 1-(3-(tert-Butyl)-1-(p-tolyl)-1H-pyrazol-5-yl)-3-(2,3-dichloro-4-((2-((3-(2-(2-(2-hydroxyethoxyl)ethoxy)ethoxy)-5-methoxyphenyl)amino)pyrimidin-4-yl)oxy)phenyl)urea] | 1.8 |  | 60.8 | 740 | 1 | 23 | 19 | 1.1 | 1.3 | 7740
